From patent publication US20090286878A1, “POLYOL DERIVED ANTI-MICROBIAL AGENTS AND COMPOSITIONS” (priority 2008, published 2009)

Tests used:
Assay in all cases: Fungicidal activity, modified EN12175 test
Assay type in all cases: cell-based
[1] = system: Aspergillus niger; conditions: 1% concentration; for A. niger log reduction 30 min: 30 min contact; for A. niger log reduction 30 min / A. niger log reduction 1 h / A. niger log reduction 24 h: vs water control; for A. niger log reduction 1 h: 1 h contact; for A. niger log reduction 24 h: 24 h contact; for A. niger cfu/mL (residual spore cell count): inoculum 2.60E+08 cfu/mL, room temperature
Method: (§1) Fungicidal activity is tested according to trivial modifications of the standard EN12175 test method. […] Penicillium funiculosum, Aspergillus niger and Aureobasidium pullulans are tested as important mold strains. The resulting cell count reduction is compared to a water control. […]

[2] = system: Aureobasidium pullulans; conditions: 1% concentration; for A. pull. log reduction 30 min: 30 min contact; for A. pull. log reduction 30 min / A. pull. log reduction 1 h / A. pull. log reduction 24 h: vs water control; for A. pull. log reduction 1 h: 1 h contact; for A. pull. log reduction 24 h: 24 h contact; for A. pull. cfu/mL (residual spore cell count): inoculum 4.0E+06 cfu/mL, room temperature
Method: as §1

[3] = system: Penicillium funiculosum; conditions: 1% concentration; for P. funic. log reduction 30 min: 30 min contact; for P. funic. log reduction 30 min / P. funic. log reduction 1 h / P. funic. log reduction 24 h: vs water control; for P. funic. log reduction 1 h: 1 h contact; for P. funic. log reduction 24 h: 24 h contact; for P. funic. cfu/mL (residual spore cell count): inoculum 3.60E+07 cfu/mL, room temperature
Method: as §1

Row | SMILES | A. niger log reduction 30 min [1] [log] | A. niger log reduction 1 h [1] [log] | A. niger log reduction 24 h [1] [log] | A. niger cfu/mL (residual spore cell count) [1] [cfu/mL] | A. pull. log reduction 30 min [2] [log] | A. pull. log reduction 1 h [2] [log] | A. pull. log reduction 24 h [2] [log] | A. pull. cfu/mL (residual spore cell count) [2] [cfu/mL] | P. funic. log reduction 30 min [3] [log] | P. funic. log reduction 1 h [3] [log] | P. funic. log reduction 24 h [3] [log] | P. funic. cfu/mL (residual spore cell count) [3] [cfu/mL]
1 | CCCCCCCCCCCCNCCCCCC(=O)OCC(CC)(COC(=O)CCCCCNCCCCCCCCCCCC)COC(=O)CCCCCNCCCCCCCCCCCC [Ex 16] | >4 | >4 | >4 | <10 | >4 | >4 | >4 | <10 | >4 | >4 | >4 | <10
2 | CCCCCCCCNCCC(=O)OCC(CC)(COC(=O)CCNCCCCCCCC)COC(=O)CNCCCCCCCC [Ex 18] | >4 | >4 | >4 | <10 | >4 | >4 | >4 | <10 | >4 | >4 | >4 | <10
